Active and inactive are the calls of the source. The rule behind the calls is not given here.

The target in test [1] is Muscarinic acetylcholine receptor.
Description: Binding affinity against muscarinic acetylcholine receptor from rat brain crude membrane, using [3H]-NMS (N-Methylscopolamine) as the radioligand.
For a further test, the species on record is Rattus norvegicus. The test can be described thus: The compound was tested for maximum stimulation of PI (phosphatidyl inositol) in rat hippocampal tissue, activity is expressed as percent of carbachol response; Inactive. It is filed as functional. As to conditions: Hippocampus.

As usually defined, the Ki is a measure of affinity in units of concentration, obtained from inhibition or displacement. Low values mean a stronger hold on the target, high ones a looser hold on the target. Take `CC1OC2(CCN(C)CC2)CC1O.Cl` (stereo unspecified): in test [1], the Ki is 430 µM. Take `CC1OC2(CCN(C)CC2)C2OCCOC12` (stereo unspecified): the Max stimulation entry in the test listed under Rattus norvegicus was “inactive”. In test [1], `CC1CC(=O)C2(CCN(C)CC2)O1` (stereo unspecified) came in with a Ki of 33 µM. The same measure, in the same setting: to `CC1OC2(CCN(C)CC2)CC1O` (stereo unspecified) belongs 141 µM; to `CC(=O)O/N=C1\COC2(CCN(C)CC2)C1.O=C(O)/C=C\C(=O)O.O=C(O)C(=O)O`, 44.8 µM; to `CCC(=O)O/N=C1\COC2(CCN(C)CC2)C1.O=C(O)/C=C\C(=O)O.O=C(O)C(=O)O`, 38.1 µM. On to `CC1OC2(CCN(C)CC2)C/C1=N\O` (stereo unspecified), for which, in test [1], the Ki is 1.63 µM. The same measure, in the same setting: the value for `CC1OC2(CCN(C)CC2)CC1=O` (stereo unspecified) was 2.68 µM; that for `CC(=O)OC1COC2(CCN(C)CC2)C1` (stereo unspecified) was 98.7 µM. The same measure, in the same setting: the value for `CC1CC(O)C2(CCN(C)CC2)O1` (stereo unspecified) was 30 µM. In the case of `CC1OC2(CCN(C)CC2)C2SCCSC12` (stereo unspecified), in the test filed under Rattus norvegicus, the Max stimulation result was “inactive”.

Source of the values: ChEMBL document CHEMBL1128313, “In vitro muscarinic activity of spiromuscarones and related analogs” (J Med Chem, 1995).
